Laboratory results reported in patent US20150223465A1, “COMPOSITION CONTAINING 3-CYCLOPROPYL-1-ENYL-PROPANOIC ACID SALTS AND A CARRIER” (Yissum Research Development Company of the Hebrew …, priority 2012, published 2015).

Experiments:
[1] = test system: cut carnation flowers; test: Delaying senescence of cut carnation flowers: loading 24 h in CPAS solution, then 2 ppm ethylene for 24 h, visual inspection/photographs; format: in vivo, carnation (Dianthus caryophyllus); design: key to Results (ethylene antagonizing effect of CPAS by visual inspection): The result “−” means no ethylene antagonizing effect by visual inspection.; The result “+++” means high ethylene antagonizing effect by visual inspection.; The result “++++” means very high ethylene antagonizing effect by visual inspection
From the text: The ethylene antagonizing effect of composition described herein can be assessed by its effect of delaying senescence of cut plants, such as cut flowers. Some embodiments of the present invention are based on the use of the composition described herein to treat cut flowers for delaying senescence of the cut flowers.
Cut Flowers: Unless otherwise noted, carnation flowers grown in a greenhouse were harvested at the beginning of flower opening stage, early in the morning, and were immediately brought to the laboratory. The flowers were either processed immediately or stored in a cold room (4° C.) for 1 to 5 days as required.
Treatment Procedure: The flower stems were cut under tap water to the desired lengths (15 cm-55 cm). Four flowers for each treatment group (of two flowers per each groups) were loaded in a 20 mL aqueous treatment solution (or “loading solution”) for 24 hours. The treatment solution was placed in a 35 mL tube. The loading solutions of CPAS in buffers were prepared in distilled water, as described hereinafter. At the end of CPAS loading, the flowers were transferred to tap water for 1 to 4 days until the cut flowers open. The cut flowers were then exposed to 2 ppm ethylene for 24 hours. Control cut flowers were loaded in a control solution without CPAS in the same manner as the treated cut flowers, and were thereafter exposed to ethylene or air. At the end of ethylene exposure, the flowers were ventilated and left in tap water under controlled conditions (a temperature of 22° C., a relative humidity of 80%, and continuous fluorescent light) for additional 5 days for senescence assessment.

[2] = test system: carnation flowers; test: Spraying cut carnations with CPAS solution, then 2 ppm ethylene for 24 h; format: in vivo, carnation (Dianthus caryophyllus)
Procedure: Carnation flowers were harvested at the full bloom stage, when the outer petals deflected at right angles to the stem. The flowers were selected for uniformity in terms of flower diameter and placed in tap water. […] The deionized water was used to avoid salt precipitation due to the existence of calcium in tap water. The treatment solution contained a surfactant, Triton-X 100™ (0.05%). Twenty-four hours after the spraying application, the flowers were treated with 2 ppm ethylene for 24 hours. During treatment and during observation of vase-life, the flowers were kept at 22° C. Each treatment was carried out in three replicates, 3 flowers in each replicate.
Carnation flowers were harvested at the full bloom stage, when the outer petals deflected at right angles to the stem. The flowers were selected for uniformity in terms of flower diameter and placed in tap water. The flowers were then sprayed with various concentrations of CPAS (sodium salt) ranging from 15 to 60 ppm dissolved in NaHCO3 (pH 8.2, 20 and 40 mM) in tap water. The treatment solution contained a surfactant, Kinetic® (0.05%). Twenty-four hours after the CPAS spraying application, the flowers were treated with 2 ppm ethylene for 24 hours. During treatment and during observation of vase-life, the flowers were kept 22° C. Each treatment was carried out in three replicates, 3 flowers in each replicate.

## O=C([O-])CCC1=CC1.[Na+] [CPAS, 3-cyclopropyl-1-enyl-propanoic acid salt]
[1]; 36 cm stems, 60 and 120 ppm CPAS in Na-phosphate buffer (20 mM) containing NaHCO3 (60 mM), pH 7.2
  senescence of cut flowers: delayed senescence
[1]; 60 or 120 ppm CPAS in 20 mM Na2CO3/NaHCO3 buffer pH 9.4, 36 cm stems
  flower senescence: delayed flower senescence
[1]; 120 ppm CPAS in 20 mM NaHCO3 pH 8.2, 36 cm stems
  flower senescence: delayed flower senescence
[1]; CPAS sodium salt 20-120 ppm in Na2CO3/NaHCO3 buffer 20 mM pH 9.2-9.4
  Results (ethylene antagonizing effect of CPAS by visual inspection): ++++
[1]; CPAS sodium salt 20-120 ppm in Na-Phosphate buffer 20 mM pH 7.6
  Results (ethylene antagonizing effect of CPAS by visual inspection): −
[1]; CPAS sodium salt 20-120 ppm in NaHCO3 20 mM pH 8.2
  Results (ethylene antagonizing effect of CPAS by visual inspection): +++
[1]; CPAS sodium salt 20-160 ppm in Glycine/NaOH buffer 20 mM pH 8.8, 36 cm stems, loading 24 h
  senescence of cut flowers: no effect
[1]; CPAS sodium salt 20-160 ppm in H3BO3/NaOH buffer 20 mM pH 9.2, 36 cm stems, loading 24 h
  senescence of cut flowers: no effect
[1]; CPAS sodium salt 20-160 ppm in Na2CO3/NaHCO3 buffer 20 mM pH 9.4, 36 cm stems, loading 24 h
  senescence of cut flowers: showed delayed senescence
[1]; stem length 15 cm, 40, 60 and 120 ppm CPAS in 20 mM NaHCO3 pH 8.2
  senescence of cut flowers: showed delayed senescence
[1]; stem length 36 cm, 120 mM CPAS (so in the source) in 20 mM NaHCO3 pH 8.2
  senescence of cut flowers: showed delayed senescence
[1]; stem length 55 cm, 120 mM CPAS (so in the source) in 20 mM NaHCO3 pH 8.2
  senescence of cut flowers: No delayed senescence
[1]; stem length 55 cm, 60 or 120 ppm CPAS in 60 mM Na2CO3/NaHCO3 buffer pH 9.4
  senescence of cut flowers: showed delayed senescence
[1]; stem length 55 cm, 120 ppm CPAS in 60 mM NaHCO3 pH 8.2
  senescence of cut flowers: showed delayed senescence
[2]; 15 ppm CPAS in NaHCO3 pH 8.2 (20 and 40 mM), Kinetic 0.05%, tap water
  effect on ethylene-induced flower senescence: little effect
[2]; 40 ppm CPAS in Na2CO3/NaHCO3 buffer pH 9.2 below 60 mM, Triton-X 100 0.05%, deionized water
  effect on ethylene-induced flower senescence: little effect
[2]; 80 and 120 ppm CPAS in Na2CO3/NaHCO3 buffer pH 9.2, 40 and 60 mM, Triton-X 100 0.05%
  effect on ethylene-induced flower senescence: significant effect
[2]; CPAS in NaHCO3 (40 mM) dissolved in tap water compared with DI water
  delay of flower senescence, tap water versus DI water: more efficiently
[2]; higher CPAS concentrations (up to 60 ppm) in NaHCO3 pH 8.2 (20 and 40 mM), Kinetic 0.05%, tap water
  effect on ethylene-induced flower senescence: significantly delayed flower senescence
